Measured values reported in patent US20240100013A1, “SOTAGLIFLOZIN FOR IMPROVING LEFT ATRIAL FUNCTION” (CHARITÉ-UNIVERSITÄTSMEDIZIN BERLIN, priority 2021, published 2024).

Assays:
[1] = test system: HFpEF (ZSF-1 obese) rats; test: Echocardiography of LA size in the ZSF-1 obese rat model of HFpEF after chronic treatment; type: in vivo; details: 30 mg/kg/day oral feeding, seven weeks, vs vehicle
Text: Animal experiments were approved by local authorities. The ZSF-1 obese rat model is based on a leptin receptor mutation resulting in severe metabolic dysfunction. See Bilan V P, Salah E M, Bastacky S, Jones H B, Mayers R M, Zinker B, Poucher S M, Tofovic S P: “Diabetic nephropathy and long-term treatment effects of rosiglitazone and enalapril in obese ZSF1 rats,” J Endocrinol 2011, 210(3):293-308. The model has repeatedly been reported to show distinct features of HFpEF, such as an increased left ventricular (LV) end diastolic pressure, LV hypertrophy, diastolic dysfunction, lung congestion and LA remodeling, while maintaining a preserved ejection fraction (EF).
Echocardiography. Echocardiography was performed and analyzed as previously described (See Hohendanner F, Bode D, Primessnig U, Guthof T, Doerr R, Jeuthe S, Reimers S, Zhang K, Bach D, Wakula P et al: “Cellular mechanisms of metabolic syndrome-related atrial decompensation in a rat model of HFpEF” J Mol Cell Cardiol 2018, 115:10-19) by an experienced observer (N.H.) blinded to the treatment group immediately prior to sacrifice using a vevo lab ultrasound system to assess LA size and LV fractional shortening in vivo. 1-lead electrocardiograms were obtained during echocardiography and the presence or absence of atrial rhythm disorders i.e., atrial fibrillation was documented.

[2] = test system: LA cardiomyocytes; test: Sarcomere shortening of LA cardiomyocytes; type: cell-based, rat
Method: (§1) Ca^2+ measurements and sarcomere shortening. Radiometric Ca^2+ measurements (excitation: 340 nm and 385 nm, emission: 510±10 nm; [Ca^2+] expressed as the ratio R=F340/F380) were performed either with a CytoCypher MultiCell System (CytoCypher BV, Netherlands; FIGS. 1C-F, 2D-G, 4A-F) or an Axiovert 200 microscope (Zeiss, Oberkochen, Germany) fluorescence imaging assembly (FIGS. 2A-C, 2H-J, 3A-E, 6E-I). LA cardiomyocytes were loaded with Fura-2 for 30 min at room temperature, washed twice with Tyrode solution and transferred to the microscope. Experiments were conducted at 37° C. and CaT were recorded at steady state (following electric stimulation).
(§2) CaT and sarcomere shortening of LA and LV cardiomyocytes were recorded for 10 s at 3 Hz stimulation. See FIGS. 2D-G, 4A-F. Electric stimulation was turned off and spontaneous SR Ca^2+ release events (See Voigt N, Heijman J, Wang Q, Chiang D Y, Li N, Karck M, Wehrens X H T, Nattel S, Dobrev D: “Cellular and molecular mechanisms of atrial arrhythmogenesis in patients with paroxysmal atrial fibrillation,” Circulation 2014, 129(2):145-156) (SCaEs) immediately recorded for a duration of 10 s (FIG. 1C-F). In a sub-set of LA cells, CaT were recorded for 10 s at 1 Hz stimulation. Electric stimulation was turned off, the cells immediately exposed to 20 mM caffeine and the sub-sequent caffeine-induced CaT recorded for 10 s (FIG. 2A-C, 3A-E). Sodium-calcium exchanger (NCX) activity was calculated as previously described. See Hohendanner F, Walther S, Maxwell J T, Kettlewell S, Awad S, Smith G L, Lonchyna V A, Blatter L A: “Inositol-1,4,5-trisphosphate induced Ca^2+ release and excitation-contraction coupling in atrial myocytes from normal and failing hearts,” J Physiol 2015, 593(6):1459-1477.

[3] = setting of diabetes; cited from earlier work
[4] = test system: LA cardiomyocytes; test: Spontaneous SR Ca2+ release events (SCaEs) of isolated LA cardiomyocytes; type: cell-based, rat; details: HFpEF LA cardiomyocytes after chronic treatment
Text: (§3) Cardiomyocyte isolation. LA and LV cardiomyocytes were isolated using enzymatic digestion as previously described in detail. See Bode D, Guthof T, Pieske B M, Heinzel F R, Hohendanner F: “Isolation of Atrial Cardiomyocytes from a Rat Model of Metabolic Syndrome-related Heart Failure with Preserved Ejection Fraction,” J Vis Exp 2018(137).
Solutions and chemicals. Chemicals were obtained from Sigma-Aldrich (St. Louis, MO, USA) unless noted otherwise. The dual SGLT1/2 inhibitor sotagliflozin was provided by Lexicon Pharmaceuticals (The Woodlands, TX, USA). Fluorescent dyes Fura-2 AM, Rhod-2 AM, MitoTracker red, MitoTracker green, TMRE and H2-DCF were obtained from Thermo Fisher Scientific (Waltham, MA, USA). Tyrode solution contained (in mM): 130 NaCL, 4 KCl, 2 CaCl, 1 MgCl2, 10 Glucose, 10 HEPES; pH adjusted to 7.4 with NaOH. LA cardiomyocytes were plated on laminin-coated glass coverslips. 20 mM caffeine was added to Tyrode solution to induce sarcoplasmic reticulum (SR) Ca^2+ release and obtain a measure of SR Ca^2+ content. […]
Ca^2+ measurements and sarcomere shortening. Radiometric Ca^2+ measurements (excitation: 340 nm and 385 nm, emission: 510±10 nm; [Ca^2+] expressed as the ratio R=F340/F380) were performed either with a CytoCypher MultiCell System (CytoCypher BV, Netherlands; FIGS. 1C-F, 2D-G, 4A-F) or an Axiovert 200 microscope (Zeiss, Oberkochen, Germany) fluorescence imaging assembly (FIGS. 2A-C, 2H-J, 3A-E, 6E-I). […] Experiments were conducted at 37° C. and CaT were recorded at steady state (following electric stimulation).
CaT and sarcomere shortening of LA and LV cardiomyocytes were recorded for 10 s at 3 Hz stimulation. See FIGS. 2D-G, 4A-F. Electric stimulation was turned off and spontaneous SR Ca^2+ release events (See Voigt N, Heijman J, Wang Q, Chiang D Y, Li N, Karck M, Wehrens X H T, Nattel S, Dobrev D: “Cellular and molecular mechanisms of atrial arrhythmogenesis in patients with paroxysmal atrial fibrillation,” Circulation 2014, 129(2):145-156) (SCaEs) immediately recorded for a duration of 10 s (FIG. 1C-F). […]

[5] = test system: LA cardiomyocytes; test: Ca2+ transient (CaT) measurements (Fura-2) in LA cardiomyocytes, incl. glucose starvation/reintroduction and glycolytic inhibition; type: cell-based, rat
Text: as §3
Solutions and chemicals. Chemicals were obtained from Sigma-Aldrich (St. Louis, MO, USA) unless noted otherwise. The dual SGLT1/2 inhibitor sotagliflozin was provided by Lexicon Pharmaceuticals (The Woodlands, TX, USA). Fluorescent dyes Fura-2 AM, Rhod-2 AM, MitoTracker red, MitoTracker green, TMRE and H2-DCF were obtained from Thermo Fisher Scientific (Waltham, MA, USA). Tyrode solution contained (in mM): 130 NaCL, 4 KCl, 2 CaCl, 1 MgCl2, 10 Glucose, 10 HEPES; pH adjusted to 7.4 with NaOH. LA cardiomyocytes were plated on laminin-coated glass coverslips. 20 mM caffeine was added to Tyrode solution to induce sarcoplasmic reticulum (SR) Ca^2+ release and obtain a measure of SR Ca^2+ content. […] For glucose starvation (FIGS. 2H-J, 5A-D), glucose of Tyrode solution was replaced with 30 mM mannitol. For sub-sequent glucose reintroduction, mannitol was replaced with 30 mM glucose (“high glucose condition”).
as §1, §2
Cells were treated with 2-deoxyglucose to inhibit glycolysis for a duration of 3 min, while maintaining steady stimulation at 1 Hz and CaT were recorded for another 10 s. A sub-set of cells was starved of glucose for 1 h at 37° C. CaT were recorded for 10 s at 1 Hz stimulation. See FIGS. 2H-J. Cells were exposed to glucose and constant electric pacing at 1 Hz was maintained. After 1 min, CaT transients were recorded for 10 s at 1 Hz stimulation.

[6] = HFpEF, 3 Hz, 5 mM extracellular [Ca2+]
[7] = HFpEF, 2-deoxyglucose, 3 min, 1 Hz
[8] = baseline, 1 Hz, 2 mM Ca2+, chronic treatment

With `CCOc1ccc(Cc2cc([C@@H]3O[C@H](SC)[C@@H](O)[C@H](O)[C@H]3O)ccc2Cl)cc1` [sotagliflozin, (2S,3R,4R,5S,6R)-2-(4-chloro-3-(4-ethoxybenzyl)phenyl)-6-(methylthio)tetrahydro-2H-pyran-3,4,5-triol] the “LA enlargement (LA volume in vivo)” value [1] was “mitigates LA enlargement”, the “shortening of time-to-peak and relaxation time” value ([2]; HFpEF) was “this effect could not be observed” and the diastolic sarcomere length [2, 6] was “significant increase”. The “Ca2+ sensitivity” value ([2]; HFpEF, relationship of CaT and sarcomere shortening) was “reduced”, the sarcomere relaxation time ([2]; WT) was “shortened” and the sarcomere shortening time-to-peak ([2]; WT) was “shortened”. For the same compound, the “effects on blood pressure and body weight” value [3] was “beneficial effects”, the “amplitude of SCaEs” value [4] was “significantly reduced” and the SCaE event frequency ([4]; non-stimulated interval after 3 Hz) was “remained unaltered”. The “increased CaT amplitude gain upon glycolytic inhibition” value [5, 7] was “prevented”, the “increased influx of diastolic Ca2+ upon glycolytic inhibition” value [5, 7] was “prevented” and the CaT amplitudes [5, 6] was “unchanged”. The “diastolic [Ca2+]” value [5, 6] was “significant reduction”, the “glucose-mediated influx of diastolic Ca2+” value ([5]; HFpEF, 1 h glucose starvation, then 30 mM glucose) was “prevented” and the CaT amplitude [5, 8] was “did not alter”. For the same compound, the “diastolic [Ca2+]” value [5, 8] was “did not alter”.
